In paper PMC8231556, “Inhibiting Endothelial Cell Function in Normal and Tumor Angiogenesis Using BMP Type I Receptor Macrocyclic Kinase Inhibitors” (Cancers, 2021) one finds inhibition data, which are given here for three compounds.

What all share (assay): radiometric kinase profiling (33 PanQinase)
Holding throughout (type): biochemical

In one experiment the target is T1, NEK1 (Homo sapiens, UniProt Q96PY6).
T1 construct: purchased ProQinase (33PanQinase Activity Assay)
T1 sequence (Q96PY6 1-1258): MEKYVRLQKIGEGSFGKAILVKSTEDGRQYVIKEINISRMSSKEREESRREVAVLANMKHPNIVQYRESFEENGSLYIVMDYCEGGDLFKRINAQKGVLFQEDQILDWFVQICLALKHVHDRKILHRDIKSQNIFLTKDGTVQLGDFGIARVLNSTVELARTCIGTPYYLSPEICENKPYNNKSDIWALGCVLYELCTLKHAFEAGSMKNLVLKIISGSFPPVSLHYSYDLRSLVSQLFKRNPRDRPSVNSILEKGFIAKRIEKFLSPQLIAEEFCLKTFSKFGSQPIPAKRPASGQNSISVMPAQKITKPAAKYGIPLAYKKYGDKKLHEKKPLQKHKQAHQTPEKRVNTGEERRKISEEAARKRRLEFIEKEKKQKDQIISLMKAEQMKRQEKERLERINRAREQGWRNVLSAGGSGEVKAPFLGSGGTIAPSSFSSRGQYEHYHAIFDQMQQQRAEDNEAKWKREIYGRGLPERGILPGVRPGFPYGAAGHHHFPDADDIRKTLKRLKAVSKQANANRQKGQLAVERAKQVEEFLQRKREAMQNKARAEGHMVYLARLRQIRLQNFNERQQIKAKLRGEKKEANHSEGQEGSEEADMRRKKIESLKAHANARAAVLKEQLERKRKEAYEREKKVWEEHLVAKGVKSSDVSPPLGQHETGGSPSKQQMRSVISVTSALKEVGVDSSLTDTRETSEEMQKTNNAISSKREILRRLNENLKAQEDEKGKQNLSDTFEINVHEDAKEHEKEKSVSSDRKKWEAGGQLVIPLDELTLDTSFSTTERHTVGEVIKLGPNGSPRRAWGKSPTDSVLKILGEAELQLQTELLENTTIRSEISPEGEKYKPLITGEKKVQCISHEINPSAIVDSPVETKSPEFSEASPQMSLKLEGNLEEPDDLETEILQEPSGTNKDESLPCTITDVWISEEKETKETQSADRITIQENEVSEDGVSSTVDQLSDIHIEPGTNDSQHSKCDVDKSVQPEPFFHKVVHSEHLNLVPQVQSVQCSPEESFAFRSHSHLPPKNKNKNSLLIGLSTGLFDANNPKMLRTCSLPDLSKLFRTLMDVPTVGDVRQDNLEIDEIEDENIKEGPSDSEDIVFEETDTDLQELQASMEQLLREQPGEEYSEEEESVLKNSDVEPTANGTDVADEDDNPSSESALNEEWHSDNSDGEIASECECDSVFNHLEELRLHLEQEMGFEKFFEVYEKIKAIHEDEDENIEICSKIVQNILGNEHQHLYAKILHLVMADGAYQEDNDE
The conditions noted are these: read-out: Inhibitory effect (%) NEK1. On the procedure:
(§1) The kinase inhibition profile of the compounds was determined by testing 96 protein kinases’ activity using a radiometric protein kinase assay (33 PanQinase® Activity Assay, Proqinase, Germany). In brief, 10 µL of non-radioactive ATP solution (in H2O), 25 µL of assay buffer/[γ-33 P]-ATP mixture, 5 µL of 0.1 μM the tested compound in 10% DMSO and 10 µL of enzyme/substrate were mixed in 96-well FlashPlatesTM (Perkin Elmer, Boston, MA, USA). The reaction was conducted at 30 °C for 60 min. To stop the reaction, 50 µL of 2% (v/v) H3PO4 was added into the protein kinase reaction cocktails. After which, with 200 µL 0.9% (w/v) NaCl twice, the incorporation of ^33 Pi (counting of “cpm”) was determined with a microplate scintillation counter (Wallac Microbeta, Boston, MA, USA). All protein kinase assays were performed using a BeckmanCoulter Biomek 2000/SL robotic system (Brea, CA, USA). The residual activity (in %) for each compound was normalized to 100% enzyme activity (untreated control) and background (negative control).

Another experiment has as its target T2, CAMK2D (Homo sapiens, UniProt Q13557).
T2 construct: purchased Proqinase, Germany
The conditions noted are these: read-out: Inhibitory effect (%) CAMK2D. On the procedure:
as §1

The next experiment has as its target T3, SRC (Homo sapiens, UniProt P12931).
T3 construct: purchased ProQinase (33PanQinase Activity Assay)
The conditions noted are these: read-out: Inhibitory effect (%) SRC. On the procedure: as §1

The target of a further experiment is T4, CDK9_cyclinT1 (Homo sapiens, UniProt P50750).
T4 construct: purchased Proqinase, Germany
The conditions noted are these: read-out: Inhibitory effect (%) CDK9_cyclinT1. On the procedure: as §1

The target of the next experiment is T5, NUAK1 (Homo sapiens, UniProt O60285).
T5 construct: purchased ProQinase (33PanQinase Activity Assay)
T5 sequence (O60285 1-661): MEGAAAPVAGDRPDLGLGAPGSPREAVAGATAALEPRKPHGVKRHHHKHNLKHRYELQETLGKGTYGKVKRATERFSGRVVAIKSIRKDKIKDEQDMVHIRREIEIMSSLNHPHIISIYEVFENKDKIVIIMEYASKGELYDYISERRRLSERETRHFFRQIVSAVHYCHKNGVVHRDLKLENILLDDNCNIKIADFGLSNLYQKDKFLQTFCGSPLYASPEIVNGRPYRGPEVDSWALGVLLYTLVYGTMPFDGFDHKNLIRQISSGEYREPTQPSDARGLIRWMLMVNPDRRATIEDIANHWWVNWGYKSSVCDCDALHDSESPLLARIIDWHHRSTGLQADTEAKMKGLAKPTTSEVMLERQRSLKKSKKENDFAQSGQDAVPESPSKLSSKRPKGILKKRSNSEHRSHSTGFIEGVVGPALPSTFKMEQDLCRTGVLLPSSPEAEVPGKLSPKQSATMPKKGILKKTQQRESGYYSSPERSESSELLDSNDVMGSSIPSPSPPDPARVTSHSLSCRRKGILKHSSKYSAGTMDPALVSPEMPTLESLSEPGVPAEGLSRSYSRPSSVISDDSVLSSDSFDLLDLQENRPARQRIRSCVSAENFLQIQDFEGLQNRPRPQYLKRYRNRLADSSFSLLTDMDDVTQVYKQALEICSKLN
The conditions noted are these: read-out: Inhibitory effect (%) NUAK1. As to the method: as §1

Another experiment has as its target T6, PLK1 (Homo sapiens, UniProt P53350).
T6 construct: purchased ProQinase (33PanQinase Activity Assay)
The conditions noted are these: read-out: Inhibitory effect (%) PLK1. As to the method: as §1

The structures appear in SMILES notation.

T4 sequence (P50750 whole entry): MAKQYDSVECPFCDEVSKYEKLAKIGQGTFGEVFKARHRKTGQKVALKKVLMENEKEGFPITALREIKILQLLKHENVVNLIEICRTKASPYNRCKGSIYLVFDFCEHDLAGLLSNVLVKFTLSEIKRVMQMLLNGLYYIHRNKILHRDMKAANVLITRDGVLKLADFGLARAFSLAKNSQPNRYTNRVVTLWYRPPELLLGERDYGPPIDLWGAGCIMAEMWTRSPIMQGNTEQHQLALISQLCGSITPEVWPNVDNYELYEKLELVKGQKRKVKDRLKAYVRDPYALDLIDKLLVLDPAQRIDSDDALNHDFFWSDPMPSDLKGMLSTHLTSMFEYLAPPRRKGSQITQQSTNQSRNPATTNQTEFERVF
T4 sequence (O60563 whole entry partner): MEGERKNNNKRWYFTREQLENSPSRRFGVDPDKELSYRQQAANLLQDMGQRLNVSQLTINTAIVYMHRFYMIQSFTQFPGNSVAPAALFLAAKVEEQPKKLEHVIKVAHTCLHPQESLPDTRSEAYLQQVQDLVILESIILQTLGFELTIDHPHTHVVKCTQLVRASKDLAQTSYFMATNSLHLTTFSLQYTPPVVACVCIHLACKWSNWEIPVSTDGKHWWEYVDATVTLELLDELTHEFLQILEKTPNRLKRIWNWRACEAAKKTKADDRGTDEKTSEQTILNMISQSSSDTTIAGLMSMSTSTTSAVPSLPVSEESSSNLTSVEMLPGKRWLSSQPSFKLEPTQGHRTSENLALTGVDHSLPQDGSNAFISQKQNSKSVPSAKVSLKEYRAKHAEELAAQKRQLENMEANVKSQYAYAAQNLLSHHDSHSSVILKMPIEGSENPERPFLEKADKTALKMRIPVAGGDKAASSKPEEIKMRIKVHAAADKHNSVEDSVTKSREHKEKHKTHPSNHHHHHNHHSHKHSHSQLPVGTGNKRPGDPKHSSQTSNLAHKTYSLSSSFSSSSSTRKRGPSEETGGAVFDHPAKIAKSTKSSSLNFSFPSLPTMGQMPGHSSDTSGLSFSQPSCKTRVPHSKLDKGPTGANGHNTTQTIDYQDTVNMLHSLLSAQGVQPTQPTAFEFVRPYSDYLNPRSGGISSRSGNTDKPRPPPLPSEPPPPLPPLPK
T3 sequence (P12931 whole entry): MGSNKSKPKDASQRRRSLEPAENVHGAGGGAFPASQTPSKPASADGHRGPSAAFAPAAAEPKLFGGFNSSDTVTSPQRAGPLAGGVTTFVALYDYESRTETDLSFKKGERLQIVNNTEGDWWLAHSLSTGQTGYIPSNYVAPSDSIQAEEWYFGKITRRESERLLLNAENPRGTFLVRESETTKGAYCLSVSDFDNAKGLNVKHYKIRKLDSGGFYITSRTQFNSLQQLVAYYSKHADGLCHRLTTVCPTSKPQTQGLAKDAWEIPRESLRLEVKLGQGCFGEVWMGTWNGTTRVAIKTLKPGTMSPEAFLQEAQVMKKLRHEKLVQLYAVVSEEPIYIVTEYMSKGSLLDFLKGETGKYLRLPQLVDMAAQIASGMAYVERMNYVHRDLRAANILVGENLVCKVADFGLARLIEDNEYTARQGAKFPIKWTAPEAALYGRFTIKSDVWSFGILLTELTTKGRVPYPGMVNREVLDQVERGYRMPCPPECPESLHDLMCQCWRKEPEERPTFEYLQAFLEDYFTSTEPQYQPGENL
T6 sequence (P53350 whole entry): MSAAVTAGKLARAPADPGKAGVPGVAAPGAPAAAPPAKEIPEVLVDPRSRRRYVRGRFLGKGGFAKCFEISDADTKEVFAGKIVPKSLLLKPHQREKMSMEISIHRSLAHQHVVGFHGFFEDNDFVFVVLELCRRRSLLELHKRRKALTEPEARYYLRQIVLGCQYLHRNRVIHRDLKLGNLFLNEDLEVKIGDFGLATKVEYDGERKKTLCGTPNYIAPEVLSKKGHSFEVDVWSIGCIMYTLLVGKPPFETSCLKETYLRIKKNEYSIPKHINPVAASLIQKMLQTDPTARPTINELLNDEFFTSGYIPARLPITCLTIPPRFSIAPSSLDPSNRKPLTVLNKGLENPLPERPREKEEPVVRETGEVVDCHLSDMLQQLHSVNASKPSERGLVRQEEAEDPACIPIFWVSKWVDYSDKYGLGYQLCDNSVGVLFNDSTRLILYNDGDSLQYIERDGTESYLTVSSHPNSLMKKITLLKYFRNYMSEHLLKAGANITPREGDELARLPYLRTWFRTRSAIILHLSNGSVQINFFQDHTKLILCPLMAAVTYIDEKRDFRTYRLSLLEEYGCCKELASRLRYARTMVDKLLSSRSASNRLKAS
T2 sequence (Q13557 whole entry): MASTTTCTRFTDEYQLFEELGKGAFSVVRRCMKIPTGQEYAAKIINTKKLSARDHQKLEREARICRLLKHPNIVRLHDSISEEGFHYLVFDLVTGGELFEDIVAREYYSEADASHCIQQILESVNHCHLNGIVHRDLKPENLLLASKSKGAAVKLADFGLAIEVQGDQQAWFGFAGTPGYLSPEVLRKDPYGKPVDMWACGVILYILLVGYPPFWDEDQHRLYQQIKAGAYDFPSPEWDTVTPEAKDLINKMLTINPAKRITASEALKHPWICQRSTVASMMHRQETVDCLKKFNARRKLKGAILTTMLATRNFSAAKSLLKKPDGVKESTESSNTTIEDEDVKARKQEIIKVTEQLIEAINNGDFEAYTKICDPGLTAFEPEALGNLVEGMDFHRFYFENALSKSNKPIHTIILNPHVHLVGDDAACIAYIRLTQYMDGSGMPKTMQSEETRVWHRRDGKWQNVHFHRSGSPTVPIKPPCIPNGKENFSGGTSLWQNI

For `c1ccc2c(-c3cnn4cc(-c5ccc(N6CCNCC6)cc5)cnc34)ccnc2c1` [LDN-193189, reference compound], the inhibition at 0.1 µM at NEK1 was -11.9%; at CAMK2D, -13.3%; at SRC, 2.89%; on CDK9_cyclinT1, -26.7%; on NUAK1 it was -20.2%; at PLK1, -21.7%.
Consider `CN1CCc2cccc(c2)Nc2nccc(n2)N2CCCc3cc(ccc32)C1` [OD16], for which the inhibition at 0.1 µM at NEK1 is -6.3%; at CAMK2D it was -3.48%; on SRC, -19.4%; at CDK9_cyclinT1, 54.2%; on NUAK1, 74.3%; at PLK1, -5.35%.
Turning to `CN1CCC(=O)NCCNc2ccn3ncc(c3n2)-c2cccc(c2)C1` [OD29], the inhibition at 0.1 µM is 12.6% on NEK1; 9.77% at CAMK2D; -4.82% at SRC; -2.77% on CDK9_cyclinT1; 5.32% on NUAK1; -21.2% at PLK1.
